{
  "source": "patent US12109305B2",
  "about": "“Materials architecture for gastric residence systems” (Lyndra Therapeutics, Inc., priority 2016, dated 2024)",
  "assay": "Degradation of time-dependent coupling polymer components in simulated gastric fluid",
  "format": "physicochemical",
  "conditions": "seven days",
  "from_the_text": "Additional preferred polymers for use as coupling polymers are time-dependent polymers, that is, polymers that degrade in a time-dependent manner in the gastric environment.",
  "data": [
    {"smiles": "CC(=O)OCC(COC(C)=O)OC(C)=O", "note": "[triacetin]", "values": [
      {"measurement": "degradation / retention of strength in simulated gastric fluid", "result": "degrades in a time-dependent manner"}
    ]}
  ]
}
